Experimental data reported in ChEMBL document CHEMBL2176970, “Discovery and optimization of a series of 3-(3-phenyl-3H-imidazo[4,5-b]pyridin-2-yl)pyridin-2-amines: orally bioavailable, selective, and potent ATP-independent Akt inhibitors” (J Med Chem, 2012).
Active and inactive are the calls of the source. The calls are words filed in the database; no cut-off is given here.

Tests used:
[1] = target: Cyclin-dependent kinase 5/CDK5 activator 1 (Homo sapiens) (UniProt Q00535+Q15078); test: Inhibition of CDK5/p35 using fluorescent labelled substrate at 5 uM by caliper method; assay type: protein-complex assay
Cyclin-dependent kinase 5/CDK5 activator 1 (Homo sapiens), sequence (Q00535 whole entry): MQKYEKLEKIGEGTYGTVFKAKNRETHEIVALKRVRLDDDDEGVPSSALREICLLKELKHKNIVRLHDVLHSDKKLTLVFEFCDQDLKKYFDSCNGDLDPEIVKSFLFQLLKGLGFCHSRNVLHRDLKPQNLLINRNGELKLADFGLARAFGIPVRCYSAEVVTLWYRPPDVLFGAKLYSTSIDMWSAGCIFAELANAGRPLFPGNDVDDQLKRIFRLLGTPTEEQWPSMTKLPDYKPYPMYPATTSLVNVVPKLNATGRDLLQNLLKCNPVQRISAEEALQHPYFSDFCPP
Cyclin-dependent kinase 5/CDK5 activator 1 (Homo sapiens), sequence (Q15078 99-307 partner limits assumed): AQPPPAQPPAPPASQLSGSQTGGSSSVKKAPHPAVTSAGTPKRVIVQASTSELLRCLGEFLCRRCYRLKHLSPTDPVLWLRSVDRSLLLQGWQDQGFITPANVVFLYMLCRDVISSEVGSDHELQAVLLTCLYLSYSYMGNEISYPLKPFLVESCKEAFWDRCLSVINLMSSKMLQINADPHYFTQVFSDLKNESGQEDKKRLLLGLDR

[2] = target: Macrophage colony-stimulating factor 1 receptor (Homo sapiens) (UniProt P07333); test: Inhibition of FMS using fluorescent labelled substrate at 5 uM by caliper method
[3] = target: Serine/threonine-protein kinase PAK 2 (Homo sapiens) (UniProt Q13177); test: Inhibition of PAK2 using fluorescent labelled substrate at 5 uM by caliper method
[4] = target: T1, RAC-alpha serine/threonine-protein kinase (Homo sapiens, UniProt P31749); test: Inhibition of Akt1 (1 to 480) expressed in Sf9 cells by indirect affinity mass spectrometry assay
T1 sequence (P31749 whole entry): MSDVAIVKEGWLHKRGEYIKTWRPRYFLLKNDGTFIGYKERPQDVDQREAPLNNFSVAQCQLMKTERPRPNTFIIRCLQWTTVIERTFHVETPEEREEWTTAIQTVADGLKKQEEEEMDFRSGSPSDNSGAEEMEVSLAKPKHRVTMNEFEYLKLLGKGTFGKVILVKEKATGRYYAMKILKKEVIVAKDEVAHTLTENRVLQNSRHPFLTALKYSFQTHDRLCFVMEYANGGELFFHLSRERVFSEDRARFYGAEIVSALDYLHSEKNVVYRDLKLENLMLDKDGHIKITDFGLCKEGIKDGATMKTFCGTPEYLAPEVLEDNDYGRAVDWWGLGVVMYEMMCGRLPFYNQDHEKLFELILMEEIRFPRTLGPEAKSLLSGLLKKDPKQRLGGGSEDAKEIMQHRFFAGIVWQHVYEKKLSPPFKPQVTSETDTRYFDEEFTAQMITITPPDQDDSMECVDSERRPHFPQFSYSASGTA

[5] = target: T1, RAC-alpha serine/threonine-protein kinase; test: Inhibition of Akt 1 in human A2780 cells assessed as phosphorylation of Akt at T308 after 2 hrs by Western Blot analysis; assay type: cell-based
[6] = target: T1, RAC-alpha serine/threonine-protein kinase; test: Inhibition of Akt1 in human A2780 cells assessed as phosphorylation PRAS40 at T246 after 2 hrs by Western Blot analysis; assay type: cell-based
AN3-CA = test: Antiproliferative activity against human AN3CA cells after 72 hrs by MTS assay; assay type: functional, cell-based
[7] = target: RAC-gamma serine/threonine-protein kinase (Homo sapiens, UniProt Q9Y243); test: Binding affinity to Akt3 (1 to 479) expressed in Sf9 cells assessed as change in melting temperature at 15 uM
RAC-gamma serine/threonine-protein kinase, sequence (Q9Y243 whole entry): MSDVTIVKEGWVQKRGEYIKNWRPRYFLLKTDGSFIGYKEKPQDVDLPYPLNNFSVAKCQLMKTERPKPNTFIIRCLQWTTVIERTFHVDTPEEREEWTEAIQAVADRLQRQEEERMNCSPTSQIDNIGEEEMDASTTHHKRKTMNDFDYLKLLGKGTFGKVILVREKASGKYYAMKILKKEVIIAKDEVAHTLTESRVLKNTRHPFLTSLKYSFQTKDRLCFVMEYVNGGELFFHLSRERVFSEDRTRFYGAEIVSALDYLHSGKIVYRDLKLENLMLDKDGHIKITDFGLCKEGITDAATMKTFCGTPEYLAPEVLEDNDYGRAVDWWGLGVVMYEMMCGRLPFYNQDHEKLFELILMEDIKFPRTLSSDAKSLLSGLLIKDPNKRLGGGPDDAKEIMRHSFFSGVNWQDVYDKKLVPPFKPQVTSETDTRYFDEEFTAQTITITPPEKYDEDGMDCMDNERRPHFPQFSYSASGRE

[8] = target: RAC-beta serine/threonine-protein kinase (Homo sapiens, UniProt P31751); test: Inhibition of Akt2 (1 to 481) expressed in Sf9 cells using biotin-GRPRTSSFAEG as substrate after 20 mins by Alpha-screen assay
RAC-beta serine/threonine-protein kinase, sequence (P31751 whole entry): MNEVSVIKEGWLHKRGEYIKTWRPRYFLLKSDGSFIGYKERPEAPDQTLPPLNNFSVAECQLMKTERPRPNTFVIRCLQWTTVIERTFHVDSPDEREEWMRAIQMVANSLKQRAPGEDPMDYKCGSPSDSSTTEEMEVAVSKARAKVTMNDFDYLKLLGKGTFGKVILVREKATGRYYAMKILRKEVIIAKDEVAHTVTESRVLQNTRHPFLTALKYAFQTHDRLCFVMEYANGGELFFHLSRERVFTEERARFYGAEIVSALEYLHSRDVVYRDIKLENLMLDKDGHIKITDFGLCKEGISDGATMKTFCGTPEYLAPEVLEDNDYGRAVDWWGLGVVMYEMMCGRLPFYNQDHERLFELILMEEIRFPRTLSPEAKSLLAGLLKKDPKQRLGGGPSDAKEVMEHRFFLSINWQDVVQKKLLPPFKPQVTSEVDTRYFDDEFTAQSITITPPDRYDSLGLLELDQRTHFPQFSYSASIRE

Cytochrome P450 2C8 = target: T2, Cytochrome P450 2C8 (Homo sapiens, UniProt P10632); test: Inhibition of CYP2C8 in human liver microsomes using paclitaxel as substrate after 10 mins; assay type: ADME, Microsome
T2 sequence (P10632 whole entry): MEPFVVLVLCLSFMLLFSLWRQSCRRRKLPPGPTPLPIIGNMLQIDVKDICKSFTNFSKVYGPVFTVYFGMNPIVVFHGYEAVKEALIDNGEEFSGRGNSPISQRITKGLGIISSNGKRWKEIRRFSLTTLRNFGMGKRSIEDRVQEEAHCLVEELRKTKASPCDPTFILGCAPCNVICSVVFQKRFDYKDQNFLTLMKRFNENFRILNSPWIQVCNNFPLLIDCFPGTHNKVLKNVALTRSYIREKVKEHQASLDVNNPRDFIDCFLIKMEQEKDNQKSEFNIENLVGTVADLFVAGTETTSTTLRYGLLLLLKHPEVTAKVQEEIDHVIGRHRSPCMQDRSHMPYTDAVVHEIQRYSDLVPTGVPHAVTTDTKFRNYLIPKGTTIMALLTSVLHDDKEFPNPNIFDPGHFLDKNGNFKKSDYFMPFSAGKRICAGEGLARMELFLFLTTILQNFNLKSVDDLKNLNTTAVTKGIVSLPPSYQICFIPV

Cytochrome P450 3A4 = Cytochrome P450 3A4 (Homo sapiens, UniProt P08684); test: Inhibition of CYP3A4 in human liver microsomes using midazolam as substrate after 10 mins; assay type: ADME, Microsome
Cytochrome P450 3A4, sequence (P08684 whole entry): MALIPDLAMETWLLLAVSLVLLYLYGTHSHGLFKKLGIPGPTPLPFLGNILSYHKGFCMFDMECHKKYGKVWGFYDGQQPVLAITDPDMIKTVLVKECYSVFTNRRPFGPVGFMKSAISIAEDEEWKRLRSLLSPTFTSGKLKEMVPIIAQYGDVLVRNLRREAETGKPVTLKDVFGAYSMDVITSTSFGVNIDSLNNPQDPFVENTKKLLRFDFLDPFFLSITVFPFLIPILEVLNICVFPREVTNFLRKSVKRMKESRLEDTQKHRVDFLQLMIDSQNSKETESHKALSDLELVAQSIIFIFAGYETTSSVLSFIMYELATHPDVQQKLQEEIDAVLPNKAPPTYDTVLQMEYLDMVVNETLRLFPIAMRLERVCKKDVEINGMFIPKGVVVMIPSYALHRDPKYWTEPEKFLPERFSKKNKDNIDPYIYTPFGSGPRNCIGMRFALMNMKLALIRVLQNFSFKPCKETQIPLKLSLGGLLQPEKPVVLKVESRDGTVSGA

[9] = Half life in human liver microsomes at 1 uM by LC/MS/MS; assay type: ADME, Microsome
[10] = Half life in male CD1 mouse liver microsomes at 1 uM by LC/MS/MS; assay type: ADME, Microsome
[11] = Half life in female CD1 mouse liver microsomes at 1 uM by LC/MS/MS; assay type: ADME, Microsome
[12] = target: Cyclin-dependent kinase 1/cyclin B1 (Homo sapiens) (UniProt P06493+P14635); test: Inhibition of CDK1/cyclinB using fluorescent labelled substrate at 5 uM by caliper method; assay type: protein-complex assay
[13] = target: Serine/threonine-protein kinase Sgk3 (Homo sapiens) (UniProt Q96BR1); test: Inhibition of SGK3 using fluorescent labelled substrate at 5 uM by caliper method
Serine/threonine-protein kinase Sgk3 (Homo sapiens), sequence (Q96BR1 whole entry): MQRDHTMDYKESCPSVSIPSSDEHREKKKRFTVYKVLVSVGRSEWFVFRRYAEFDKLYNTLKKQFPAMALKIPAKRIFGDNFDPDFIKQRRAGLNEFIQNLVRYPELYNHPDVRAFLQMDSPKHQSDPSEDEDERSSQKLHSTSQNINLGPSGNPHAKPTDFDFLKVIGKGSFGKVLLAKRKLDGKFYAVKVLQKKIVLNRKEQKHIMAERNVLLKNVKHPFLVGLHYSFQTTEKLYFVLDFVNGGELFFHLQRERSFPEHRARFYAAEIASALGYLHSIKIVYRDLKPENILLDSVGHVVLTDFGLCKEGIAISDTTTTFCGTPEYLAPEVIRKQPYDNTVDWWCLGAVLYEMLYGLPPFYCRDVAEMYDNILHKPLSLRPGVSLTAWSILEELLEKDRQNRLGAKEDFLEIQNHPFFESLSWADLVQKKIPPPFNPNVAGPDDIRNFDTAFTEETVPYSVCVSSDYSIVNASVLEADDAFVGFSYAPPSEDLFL

[14] = target: Serine/threonine-protein kinase Sgk2 (Homo sapiens) (UniProt Q9HBY8); test: Inhibition of SGK2 using fluorescent labelled substrate at 5 uM by caliper method
Serine/threonine-protein kinase Sgk2 (Homo sapiens), sequence (Q9HBY8 whole entry): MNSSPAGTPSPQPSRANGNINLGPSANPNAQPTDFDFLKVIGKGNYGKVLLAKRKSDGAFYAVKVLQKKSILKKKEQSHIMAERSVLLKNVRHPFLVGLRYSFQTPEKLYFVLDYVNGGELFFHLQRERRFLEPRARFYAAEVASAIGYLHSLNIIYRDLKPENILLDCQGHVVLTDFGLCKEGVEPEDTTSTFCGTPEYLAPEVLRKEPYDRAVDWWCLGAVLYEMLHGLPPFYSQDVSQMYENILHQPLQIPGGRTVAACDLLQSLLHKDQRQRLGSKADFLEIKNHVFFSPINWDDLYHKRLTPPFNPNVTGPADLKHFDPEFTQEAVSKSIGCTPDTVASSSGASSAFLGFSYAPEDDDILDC

[15] = target: Ribosomal protein S6 kinase alpha-2 (Homo sapiens) (UniProt Q15349); test: Inhibition of RSK3 using fluorescent labelled substrate at 5 uM by caliper method
[16] = target: Ribosomal protein S6 kinase alpha-3 (Homo sapiens) (UniProt P51812); test: Inhibition of RSK2 using fluorescent labelled substrate at 5 uM by caliper method
[17] = target: Protein kinase C gamma type (Homo sapiens) (UniProt P05129); test: Inhibition of PKCgamma using fluorescent labelled substrate at 5 uM by caliper method
[18] = Inhibition of PKA using fluorescent labelled substrate at 5 uM by caliper method
[19] = target: Ribosomal protein S6 kinase beta-1 (Homo sapiens) (UniProt P23443); test: Inhibition of P70S6KB1 using fluorescent labelled substrate at 5 uM by caliper method
[20] = target: Ribosomal protein S6 kinase alpha-6 (Homo sapiens) (UniProt Q9UK32); test: Inhibition of RSK4 using fluorescent labelled substrate at 5 uM by caliper method
Ribosomal protein S6 kinase alpha-6 (Homo sapiens), sequence (Q9UK32 whole entry, looked up): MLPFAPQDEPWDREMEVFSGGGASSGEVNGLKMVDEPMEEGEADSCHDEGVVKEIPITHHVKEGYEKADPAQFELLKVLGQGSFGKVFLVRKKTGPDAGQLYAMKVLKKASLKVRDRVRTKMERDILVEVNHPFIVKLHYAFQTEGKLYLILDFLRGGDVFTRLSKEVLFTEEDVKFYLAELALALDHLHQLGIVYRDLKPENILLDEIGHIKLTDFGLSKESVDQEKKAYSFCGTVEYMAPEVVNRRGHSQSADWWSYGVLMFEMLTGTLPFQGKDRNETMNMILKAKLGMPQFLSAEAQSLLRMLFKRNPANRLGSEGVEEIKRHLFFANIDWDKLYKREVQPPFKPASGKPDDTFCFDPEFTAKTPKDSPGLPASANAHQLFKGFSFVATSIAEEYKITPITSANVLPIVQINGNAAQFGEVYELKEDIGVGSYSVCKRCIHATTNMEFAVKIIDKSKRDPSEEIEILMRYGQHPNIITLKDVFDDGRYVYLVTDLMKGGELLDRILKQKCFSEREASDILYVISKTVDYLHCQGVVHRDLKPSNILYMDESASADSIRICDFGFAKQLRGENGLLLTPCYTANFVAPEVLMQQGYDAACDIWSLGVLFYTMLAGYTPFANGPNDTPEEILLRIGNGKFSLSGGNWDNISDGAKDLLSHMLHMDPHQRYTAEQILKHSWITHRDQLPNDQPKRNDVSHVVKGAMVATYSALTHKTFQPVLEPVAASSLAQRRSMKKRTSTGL

[21] = target: T1, RAC-alpha serine/threonine-protein kinase; test: Inhibition of Akt1 (1 to 480) expressed in Sf9 cells using biotin-GRPRTSSFAEG as substrate after 20 mins by Alpha-screen assay

SMILES: Nc1ncccc1-c1nc2cccnc2n1-c1ccc(CC(=O)Nc2ccccc2)cc1
- inhibition [1]: > 25%
- inhibition [2]: > 25%
- inhibition [3]: > 25%
- IC50 [4]: 14 µM
- IC50 [5]: 1.3 µM
- IC50 [6]: > 10 µM
- IC50 (AN3-CA): 70 µM
- deltaTm [7]: inactive
- IC50 [8]: 0.7 µM
- IC50 (Cytochrome P450 2C8): > 10 µM
- IC50 (Cytochrome P450 3A4): > 10 µM
- half-life at 1 µM [9]: 0.793 h
- half-life at 1 µM [10]: > 1 h
- half-life at 1 µM [11]: > 1 h
- inhibition [12]: > 25%
- inhibition [13]: > 25%
- inhibition [14]: > 25%
- inhibition [15]: > 25%
- inhibition [16]: > 25%
- inhibition [17]: > 25%
- inhibition [18]: > 25%
- inhibition [19]: > 25%
- inhibition [20]: > 25%

SMILES: Nc1ncccc1-c1nc2cccnc2n1-c1ccc(CNC(=O)c2ccccc2)cc1
- inhibition [1]: > 25%
- inhibition [2]: > 25%
- inhibition [3]: > 25%
- IC50 [5]: 0.37 µM
- IC50 [6]: > 10 µM
- IC50 (AN3-CA): > 100 µM
- deltaTm [7]: inactive
- IC50 [21]: 0.023 µM
- IC50 [8]: 0.66 µM
- IC50 (Cytochrome P450 2C8): > 10 µM
- IC50 (Cytochrome P450 3A4): > 10 µM
- half-life at 1 µM [9]: 1 h
- half-life at 1 µM [10]: > 1 h
- half-life at 1 µM [11]: > 1 h
- inhibition [12]: > 25%
- inhibition [13]: > 25%
- inhibition [14]: > 25%
- inhibition [15]: > 25%
- inhibition [16]: > 25%
- inhibition [17]: > 25%
- inhibition [18]: > 25%
- inhibition [19]: > 25%
- inhibition [20]: > 25%
